Data from ChEMBL document CHEMBL1201862, “PubChem BioAssay data set” (2004).
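Exposure lasted 48 hours, with cells grown in 96-well plates and compounds tested at five concentrations. At the GI50, growth is halved.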 Active and inactive are the calls of the source. No stated cut-off is given here; in the data, active = GI50 up to about 1.1 µM and inactive = higher.

Columns and labels:
Experiment in all cases: NCI anticancer screen, dose series, 48 h
786-0 = test system: 786-0
CAKI-1 = test system: CAKI-1
CCRF-CEM = test system: CCRF-CEM
DU-145 = test system: DU-145
HCC 2998 = test system: HCC 2998
HCT-15 = test system: HCT-15
HT-29 = test system: HT-29
K562 = test system: K562
LOX IMVI = test system: LOX IMVI
MDA-MB-231 = test system: MDA-MB-231
MDA-MB-435 = test system: MDA-MB-435
MDA-N = test system: MDA-N
NCI/ADR-RES = test system: NCI/ADR-RES
OVCAR-3 = test system: OVCAR-3
RPMI-8226 = test system: RPMI-8226
SF-295 = test system: SF-295
SN12C = test system: SN12C
SNB-19 = test system: SNB-19
HL-60 = test system: HL-60
SF-268 = test system: SF-268

Row | Compound | GI50 (786-0) | GI50 (CAKI-1) | GI50 (CCRF-CEM) | GI50 (DU-145) | GI50 (HCC 2998) | GI50 (HCT-15) [µM] | GI50 (HT-29) | GI50 (K562) | GI50 (LOX IMVI) | GI50 (MDA-MB-231) | GI50 (MDA-MB-435) | GI50 (MDA-N) | GI50 (NCI/ADR-RES) | GI50 (OVCAR-3) | GI50 (RPMI-8226) | GI50 (SF-295) | GI50 (SN12C) | GI50 (SNB-19) | GI50 (HL-60) | GI50 (SF-268)
1 | O=C1C[C@H](CCC(=O)OCc2ccccc2)NC(=O)C[C@H](CCC(=O)OCc2ccccc2)NC(=O)C[C@H](CCC(=O)OCc2ccccc2)N1 | 8.15 µM (inactive) | > 100 µM (inactive) | > 100 µM (inactive) | > 100 µM (inactive) | > 100 µM (inactive) | > 100 | > 100 µM (inactive) | > 100 µM (inactive) | > 100 µM (inactive) | 14.2 µM (inactive) | > 100 µM (inactive) | > 100 µM (inactive) | 82.4 µM (inactive) | 97.1 µM (inactive) | > 100 µM (inactive) | 8.81 µM (inactive) | > 100 µM (inactive) | 9.98 µM (inactive) | – | –
2 | Cc1ccc(S(=O)(=O)CN2C(=O)C(c3ccccc3)(c3ccccc3)C23OC(c2ccc(Cl)cc2)=CC3=O)cc1 (stereo not given) | > 10 µM (inactive) | > 10 µM (inactive) | > 10 µM (inactive) | > 10 µM (inactive) | > 10 µM (inactive) | > 10 | > 10 µM (inactive) | > 10 µM (inactive) | > 10 µM (inactive) | > 10 µM (inactive) | > 10 µM (inactive) | > 10 µM (inactive) | > 10 µM (inactive) | > 10 µM (inactive) | – | > 10 µM (inactive) | > 10 µM (inactive) | > 10 µM (inactive) | > 10 µM (inactive) | > 10 µM (inactive)
3 | c1c[nH]c(CN2CCN(Cc3ncc[nH]3)CC2)n1 | > 100 µM (inactive) | > 100 µM (inactive) | > 100 µM (inactive) | > 100 µM (inactive) | – | > 100 | > 100 µM (inactive) | – | > 100 µM (inactive) | > 100 µM (inactive) | > 100 µM (inactive) | > 100 µM (inactive) | > 100 µM (inactive) | > 100 µM (inactive) | > 100 µM (inactive) | > 100 µM (inactive) | > 100 µM (inactive) | > 100 µM (inactive) | > 100 µM (inactive) | > 100 µM (inactive)
4 | CC1N=C(c2ccccc2)OC1=O (stereo not given) | > 100 µM (inactive) | > 100 µM (inactive) | > 100 µM (inactive) | > 100 µM (inactive) | – | > 100 | > 100 µM (inactive) | > 100 µM (inactive) | > 100 µM (inactive) | > 100 µM (inactive) | > 100 µM (inactive) | > 100 µM (inactive) | > 100 µM (inactive) | > 100 µM (inactive) | > 100 µM (inactive) | > 100 µM (inactive) | > 100 µM (inactive) | > 100 µM (inactive) | – | > 100 µM (inactive)
5 | CCOC(CI)O[C@@H]1C=C[C@H](OC(C)=O)C1 (stereo not given in full) | > 100 µM (inactive) | 60.7 µM (inactive) | > 100 µM (inactive) | > 100 µM (inactive) | > 100 µM (inactive) | > 100 | > 100 µM (inactive) | > 100 µM (inactive) | – | > 100 µM (inactive) | > 100 µM (inactive) | > 100 µM (inactive) | > 100 µM (inactive) | 33.7 µM (inactive) | > 100 µM (inactive) | > 100 µM (inactive) | > 100 µM (inactive) | > 100 µM (inactive) | – | > 100 µM (inactive)
6 | COc1ccc2c(c1)c1c(n2CCN2CCOCC2)-c2cccc(OC)c2CC1 | 30.4 µM (inactive) | > 100 µM (inactive) | 18.7 µM (inactive) | 62.4 µM (inactive) | 26.6 µM (inactive) | 29.5 | 17.1 µM (inactive) | 17.3 µM (inactive) | – | 27.6 µM (inactive) | 44 µM (inactive) | 33.4 µM (inactive) | 43.6 µM (inactive) | 52.7 µM (inactive) | 16.9 µM (inactive) | 30.7 µM (inactive) | 47.2 µM (inactive) | – | – | > 100 µM (inactive)
7 | CCOC(=O)Cn1c(C)nc2nn(Cc3ccccc3)cc2c1=O | > 100 µM (inactive) | – | > 100 µM (inactive) | > 100 µM (inactive) | > 100 µM (inactive) | > 100 | > 100 µM (inactive) | > 100 µM (inactive) | – | > 100 µM (inactive) | > 100 µM (inactive) | > 100 µM (inactive) | > 100 µM (inactive) | > 100 µM (inactive) | – | > 100 µM (inactive) | > 100 µM (inactive) | > 100 µM (inactive) | – | > 100 µM (inactive)
8 | O=C(Nc1ccc2[nH]c(C(=O)N3CC(CCl)c4c3cc([N+](=O)[O-])c3ccccc43)cc2c1)Nc1ccc2[nH]c(C(=O)N3CC(CCl)c4c3cc([N+](=O)[O-])c3ccccc43)cc2c1 (stereo not given) | > 100 µM (inactive) | > 100 µM (inactive) | 22.4 µM (inactive) | > 100 µM (inactive) | – | > 100 | – | – | – | 27.5 µM (inactive) | > 100 µM (inactive) | > 100 µM (inactive) | > 100 µM (inactive) | > 100 µM (inactive) | 85.7 µM (inactive) | > 100 µM (inactive) | > 100 µM (inactive) | > 100 µM (inactive) | – | > 100 µM (inactive)
9 | NC(=O)NC(=O)c1cnccn1 | > 100 µM (inactive) | > 100 µM (inactive) | > 100 µM (inactive) | > 100 µM (inactive) | > 100 µM (inactive) | > 100 | – | > 100 µM (inactive) | > 100 µM (inactive) | > 100 µM (inactive) | > 100 µM (inactive) | > 100 µM (inactive) | > 100 µM (inactive) | > 100 µM (inactive) | > 100 µM (inactive) | > 100 µM (inactive) | > 100 µM (inactive) | > 100 µM (inactive) | – | > 100 µM (inactive)
10 | COc1ccc(/C=C2\S/C(=N/Nc3nc(-c4ccccc4)cs3)NC2=O)cc1OC | 28.4 µM (inactive) | 31.8 µM (inactive) | 4.1 µM (inactive) | 34 µM (inactive) | 22.4 µM (inactive) | 21.5 | – | – | 23.3 µM (inactive) | 21.9 µM (inactive) | 25.7 µM (inactive) | 15.4 µM (inactive) | 20.7 µM (inactive) | 15.9 µM (inactive) | – | 25.3 µM (inactive) | 17.8 µM (inactive) | 25.6 µM (inactive) | 6 µM (inactive) | 29 µM (inactive)
11 | Cc1n[nH]c(=O)n1-n1cccc1 | > 100 µM (inactive) | > 100 µM (inactive) | > 100 µM (inactive) | > 100 µM (inactive) | > 100 µM (inactive) | > 100 | > 100 µM (inactive) | > 100 µM (inactive) | > 100 µM (inactive) | > 100 µM (inactive) | > 100 µM (inactive) | > 100 µM (inactive) | > 100 µM (inactive) | > 100 µM (inactive) | > 100 µM (inactive) | > 100 µM (inactive) | > 100 µM (inactive) | > 100 µM (inactive) | – | > 100 µM (inactive)
12 | CC1=NC(=Cc2ccc(Cl)cc2)C(=O)N1n1c(-c2ccccc2)nc2ccccc2c1=O | 40.6 µM (inactive) | 17.8 µM (inactive) | 37.8 µM (inactive) | 38.1 µM (inactive) | 38.8 µM (inactive) | 44.4 | 37 µM (inactive) | 34.8 µM (inactive) | 38.5 µM (inactive) | 49.7 µM (inactive) | 43.4 µM (inactive) | 35.1 µM (inactive) | – | – | 34.1 µM (inactive) | 40.9 µM (inactive) | 43.4 µM (inactive) | 48.6 µM (inactive) | 26.3 µM (inactive) | 51.9 µM (inactive)
13 | CC(=O)OCC1OC(c2nnc(C)o2)=CC(OC(C)=O)C1OC(C)=O (stereo not given) | > 100 µM (inactive) | > 100 µM (inactive) | > 100 µM (inactive) | > 100 µM (inactive) | – | – | > 100 µM (inactive) | > 100 µM (inactive) | > 100 µM (inactive) | > 100 µM (inactive) | > 100 µM (inactive) | > 100 µM (inactive) | > 100 µM (inactive) | > 100 µM (inactive) | > 100 µM (inactive) | > 100 µM (inactive) | > 100 µM (inactive) | > 100 µM (inactive) | > 100 µM (inactive) | > 100 µM (inactive)
14 | c1ccc(-c2cc(-c3cc(-c4ccccc4)n(-c4ccccc4)n3)nn2-c2ccccc2)cc1 | 78.5 µM (inactive) | > 100 µM (inactive) | > 100 µM (inactive) | > 100 µM (inactive) | > 100 µM (inactive) | > 100 | > 100 µM (inactive) | > 100 µM (inactive) | – | > 100 µM (inactive) | > 100 µM (inactive) | > 100 µM (inactive) | > 100 µM (inactive) | > 100 µM (inactive) | – | > 100 µM (inactive) | > 100 µM (inactive) | > 100 µM (inactive) | – | > 100 µM (inactive)
15 | COc1cccc2c1OC(c1ccc(C#N)cc1)C([N+](=O)[O-])=C2 (stereo not given) | 0.482 µM (active) | 0.908 µM (active) | 1.58 µM (inactive) | 3.12 µM (inactive) | 1.76 µM (inactive) | 1.7 | 1.72 µM (inactive) | 1.21 µM (inactive) | 1.91 µM (inactive) | 1.56 µM (inactive) | 1.39 µM (inactive) | 1.52 µM (inactive) | > 100 µM (inactive) | 2.02 µM (inactive) | – | 6.14 µM (inactive) | 2.04 µM (inactive) | 6.46 µM (inactive) | 1.41 µM (inactive) | 4.12 µM (inactive)
